# Literature values in patent US20230301939A1, “NOVEL FO[…]” (Neurocentrx Pharma Ltd., priority 2018, published 2023).
# Like-named read-outs stand apart in the source and are kept apart here.
# How the values were obtained:
# [1] = target: T1, a7 nicotinic acetylcholine receptor (Rattus norvegicus, UniProt Q05941); details: for Negative allosteric modulator activity in words: KXa7R1 cell line, ketamine at the same concentrations (<1 μM)
# T1 construct: expressed in transfected cells; host or cells: KXa7R1 cell line (HEK293)
# [2] = in vivo
# T1 sequence (Q05941 23-502): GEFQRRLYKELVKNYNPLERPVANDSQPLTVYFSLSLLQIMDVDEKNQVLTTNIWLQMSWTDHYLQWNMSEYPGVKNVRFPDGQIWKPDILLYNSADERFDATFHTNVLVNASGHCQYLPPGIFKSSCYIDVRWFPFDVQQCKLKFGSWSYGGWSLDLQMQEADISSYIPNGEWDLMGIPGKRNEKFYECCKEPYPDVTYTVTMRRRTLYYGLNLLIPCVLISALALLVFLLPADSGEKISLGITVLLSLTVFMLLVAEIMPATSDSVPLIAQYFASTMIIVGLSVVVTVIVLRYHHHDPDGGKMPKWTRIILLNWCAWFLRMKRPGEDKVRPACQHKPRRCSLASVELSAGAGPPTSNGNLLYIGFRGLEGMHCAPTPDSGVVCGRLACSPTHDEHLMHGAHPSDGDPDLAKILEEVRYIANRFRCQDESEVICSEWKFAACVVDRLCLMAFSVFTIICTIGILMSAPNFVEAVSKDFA
structure (smiles),measurement,setting,value
"N[C@@]1(c2ccccc2Cl)CCC[C@@H](O)C1=O [(2R,6R)-HNK]",Antidepressant(-like) effect,mice,ketamine-type antidepressant-like effects
"CNC1(c2ccccc2Cl)CCCCC1=O (centres unmarked) [Ketamine, ketamine]",Bioavailability,intramuscularly,93%
same,Time to peak plasma concentrations,intramuscularly,5 to 15 min
same,Bioavailability,intranasally,8-50%
same,Time to peak plasma concentrations,intravenously,within a minute
same,Bioavailability,oral route,17-20%
same,Duration of action in a clinical setting,orally,4 to 6 h
same,Time to peak plasma concentrations,orally,30 min
same,Bioavailability,rectally,30%
same,Negative allosteric modulator activity in words,[1],inactive
CN[C@@]1(c2ccccc2Cl)CCCCC1=O [arketamine],Antidepressant(-like) effect,mice,greater and lasted longer than that of esketamine
NC1(c2ccccc2Cl)CCC=CC1=O (centres unmarked) [dehydronorketamine],IC50,[1]; KXa7R1 cell line (HEK293 cells transfected with rat nicotinic acetylcholine receptor genes),55 nM
same,Negative allosteric modulator activity in words,[1],nanomolar potencies
NC1(c2ccccc2Cl)CCCC(O)C1=O (centres unmarked) [hydroxynorketamine],Negative allosteric modulator activity in words,[1],nanomolar potencies
NC1(c2ccccc2Cl)CCCCC1=O (centres unmarked) [norketamine],Plasma levels relative to ketamine,following oral administration of ketamine,three times higher
same,Negative allosteric modulator activity in words,[1],nanomolar potencies
same,Potency as an anesthetic relative to ketamine,[2],one-third to one-fifth as potent
